# Measured values from publication PMC8153216 (Chemical Science, 2021).
# Test system: Coxsackievirus B3 (CVB3)
# Assay: Anti Coxsackie B3 activity assay
# Type: cell-based, Coxsackie viruse B3 (Nancy strain)
# Conditions: CVB3 in Vero cells
row,Structure (SMILES),SI (TC50/IC50)
1,NC(=O)c1ncn([C@@H]2O[C@H](CO)[C@@H](O)[C@H]2O)n1 [Ribavirin],5.2
2,Cc1cc(CCCOc2c(C)cc(-c3noc(C(F)(F)F)n3)cc2C)on1 [Pleconaril],14045.1
